The values that follow are results of earlier work, collected in patent publication US20030004142A1, “Use of NSAIDs for prevention and treatment of cellular abnormalities of the lung or bronchial pathway” (priority 2001, published 2003).

Each structure is given as a SMILES string.

Series [1] deals with OPC cell lines. Conditions: all OPC cell lines tested.
Series [2] concerns OPC cell lines. Conditions: all OPC cell lines tested. The source holds these as a separate data set.

On to `O=C(c1ccccc1)c1ccc2n1CCC2C(=O)O` (stereo not shown) [ketorolac, (.+−.)5(benzoyl)-2,3-dihydro-1H-pyrrolizine-1carboxylic acid], for which the PGE2 production result in the series with OPC cell lines [1] was “continuously and significantly decreased”. For the same compound, the “OPC growth in vivo” value in the series with OPC is “reduced OPC growth in vivo”. In the series with OPC cell lines [2], the IL-6 levels result is “continuously and significantly decreased”; the IL-8 levels result was “continuously and significantly decreased”.
